Measured values taken from patent publication US20240299393A1, “SMALL MOLECULE DISRUPTORS OF PROTEIN INTERACTIONS IN HISTONE DEACETYLASE COMPLEXES” (Dana-Farber Cancer Institute, Inc., priority 2021, published 2024).
“Also recorded” adds a separate entry of the source.

Tests used:
[1] = test system: Rpd3L HDAC binary PPIs other than Sin3-Ume6; experiment: GPCA binary PPI inhibition, other Rpd3L HDAC PPIs; format: cell-based, S. cerevisiae; conditions: 10 μM
Method: GPCA (N1-N2 version) was implemented as reported in [Choi et al 2019]. HEK293T cells were seeded at 6×10^4 cells per well in 96-well, flat-bottom, cell culture microplates (Greiner Bio-One, #655083), and cultured in Dulbecco's modified Eagle's medium (DMEM) supplemented with 10% fetal calf serum at 37° C. and 5% CO2. Twenty-four hours later, cells were transfected with 100 ng of each GPCA plasmid (GPCA-N1 and GPCA-N2) using linear polyethylenimine (PEI) to co-express the protein pairs fused with complementary luciferase fragments, Luc1 and Luc2. The DNA/PEI ratio used for transfection was 1:3 (mass:mass). […] Luminescence was measured by auto-injecting 50 μL Renilla luciferase substrate (Renilla Luciferase Assay system, catalog No. E2820, Promega) per well and integrating light output for 4 s using a TriStar luminometer (Berthold).
The ability of compounds to inhibit binary PPIs in the Sin3/Rpd3L HDAC complex was tested by GPCA in a high-throughput screening format. […] The luminescence signal for each PPI was measured by averaging the different DMSO replicates, and calculating the standard deviation of DMSO values for each interaction. […] For each interaction, a particular compound was scored as a PPI inhibitor when it decreased its luminescence signal by at least three standard deviations compared to the corresponding averaged DMSO value. […]

[2] = test system: PAH1 and PAH3 domains of human SIN3A and SIN3B; experiment: Ligand-detected NMR, human SIN3A and SIN3B PAH1 and PAH3; format: binding, H. sapiens; conditions: FIG. 28
Method: (§1) Ligand-detected NMR experiments: all results were acquired using a 3 mm tube at 25° C. on a Bruker 600 MHz Avance II system equipped with a CPPTCI cryoprobe (Bruker BioSpin Corp.). In all experiments, the concentration of E6R was fixed at 300 μM (from a stock of 25 mM in deuterated DMSO) and the concentration of the protein at 10 μM. The volume of deuterated DMSO was kept constant (1.5%) in all tested samples. Right before the experiments, the compound and protein were diluted in 1×PBS containing 0.1% deuterated dithiothreitol (DTT) to a total volume of 200 μL. Samples were diluted by 5% with D2O for magnetic field lock. Spectra were acquired for ligand only, protein only, and ligand+protein. […] STD experiments [Mayer et al 2001] were acquired with 160 scans, with protein irradiation applied for 3 s at 0 ppm and −20 ppm for the on and off resonance experiments, respectively. On and off resonance spectra were collected and stored separately. One-dimensional CPMG-R2 edited experiments [Hajduk et al 1997] were collected for samples with and without proteins using seven CPMG delays (0, 25, 50, 100, 300, 500, and 800 ms) with four scans per delay. Proton spectra used to measure DLB and chemical shift perturbations in the absence and presence of the proteins were recorded with 16 scans using a recycle delay of 3 s. […]

human SIN3A PAH2 domain = target: T1, human SIN3A PAH2 domain (Homo sapiens, UniProt Q96ST3); experiment: Ligand-detected NMR, human SIN3A PAH2; format: binding, H. sapiens; conditions: 300 μM compound, 10 μM protein
T1 construct: Residues 301-390 of human SIN3A (PAH2 domain) were inserted into the pMALC2XE vector for NMR experiments; made in house; host or cells: E. coli BL21 (DE3)
Method: as §1

[3] = test system: cycloheximide (CYH) sensitivity; experiment: Yeast cycloheximide sensitivity at 37° C.; format: cell-based, S. cerevisiae
Method: For assessment of cycloheximide (CYH) sensitivity at 37° C., yeast cells with the cyh2^R genotype (FIG. 29) were first transformed with an empty pDEST-AD-TRP1-CYH2 plasmid (FIG. 30) before running the different experiments. Selection of the plasmid was maintained by culturing cells in SC-W medium.

T1 sequence (Q96ST3 301-390): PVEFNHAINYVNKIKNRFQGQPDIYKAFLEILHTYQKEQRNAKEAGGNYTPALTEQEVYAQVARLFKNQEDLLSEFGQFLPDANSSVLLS

SMILES: CC(NC(=O)c1c(O)n2ccccc2nc1=O)c1ccccc1 (racemic) [E6]
- effect on all other PPIs [1]: unperturbed

SMILES: C[C@@H](NC(=O)c1c(O)n2ccccc2nc1=O)c1ccccc1 [E6R, 4-hydroxy-2-oxo-N—((R)-1-phenylethyl)-3,4-dihydro-2H-pyrido[, 2-a]pyrimidine-3-carboxamide]
- binding to other PAH domains of human SIN3A and SIN3B by NMR [2]: can bind
- binding to human SIN3A PAH2 by NMR (human SIN3A PAH2 domain): could bind; also recorded: virtually identical to those of yeast Sin3 PAH2

SMILES: CC(/C=C/C(=O)NO)=C\[C@@H](C)C(=O)c1ccc(N(C)C)cc1 [TSA, trichostatin A]
- CYH sensitivity [3]: induced
